Test results published in US20240009191A1, “METHOD AND COMPOSITION FOR THE TREATMENT OF DISEASE” (DIMERIX BIOSCIENCE PTY LTD, priority 2019, published 2024).
Entries after “also recorded” stand apart in the source; their conditions may differ.

Legend:
[1] = target: T1, AT1R-CXCR2 heteromer (Homo sapiens, UniProt P25025+P30556); assay: BRET trafficking of AT1R/Rluc8 to Venus/Kras or Venus/Rab markers, presence of unlabelled CXCR2; assay type: cell-based
T1 sequence (P30556 1-359): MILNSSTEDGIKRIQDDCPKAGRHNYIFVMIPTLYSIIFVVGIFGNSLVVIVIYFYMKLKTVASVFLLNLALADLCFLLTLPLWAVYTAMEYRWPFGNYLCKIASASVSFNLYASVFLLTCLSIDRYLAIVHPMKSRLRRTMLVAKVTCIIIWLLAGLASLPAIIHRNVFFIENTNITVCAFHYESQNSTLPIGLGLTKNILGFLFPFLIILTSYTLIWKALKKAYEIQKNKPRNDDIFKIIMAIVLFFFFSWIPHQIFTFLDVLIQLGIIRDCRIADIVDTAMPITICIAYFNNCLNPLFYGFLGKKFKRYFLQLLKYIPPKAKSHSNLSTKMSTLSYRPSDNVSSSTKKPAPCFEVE
T1 sequence (P25025 1-360): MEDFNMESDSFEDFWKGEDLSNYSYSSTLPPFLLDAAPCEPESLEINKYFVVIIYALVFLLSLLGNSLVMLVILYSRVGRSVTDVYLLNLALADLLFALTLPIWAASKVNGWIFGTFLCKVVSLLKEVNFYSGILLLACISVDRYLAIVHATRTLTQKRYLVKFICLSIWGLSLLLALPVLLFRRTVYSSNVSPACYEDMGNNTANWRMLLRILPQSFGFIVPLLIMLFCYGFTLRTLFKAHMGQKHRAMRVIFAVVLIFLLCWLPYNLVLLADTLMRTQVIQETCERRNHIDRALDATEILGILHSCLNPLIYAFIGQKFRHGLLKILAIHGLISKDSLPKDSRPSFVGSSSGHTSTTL
Protocol: (§1) HEK293FT cells were seeded in 6-well plates at a density of approximately 700,000 cells/well and maintained at 37° C., 5% CO2 in Complete Media (DMEM containing 0.3 mg/ml glutamine, 100 IU/ml penicillin and 100 μg/ml streptomycin (Gibco/Thermo Fisher)) supplemented with 10% fetal calf serum (FCS; Bovogen). Transient transfections were carried out 24 h after seeding using FuGene6™ (Promega) according to manufacturer instructions. 24 h post-transfection, cells were washed with PBS, detached using 0.05% trypsin/0.53 mM EDTA, resuspended in HEPES-buffered phenol red free Complete Media containing 5% FCS and added to a poly-L-lysine-coated white 96-well microplate (Greiner Bio-One). 48 h post-transfection, bioluminescence resonance energy transfer (BRET) assays were carried out following pre-incubation of cells with EnduRen™ (Promega) at a final concentration of 30 μM, at 37° C., 5% CO2 for 2 h. BRET measurements were taken at 37° C. using the LUMlstar™ or CLARIOstar™ (BMG Labtech). Filtered light emissions were measured for 1 s in each of the ‘donor wavelength window’ (460-490 nm for LUMlstar™ or 410-490 nm for CLARIOstar™) and ‘acceptor wavelength window’ (520-550 nm for LUMlstar™ or 520-620 nm for CLARIOstar™).
(§2) The BRET signal observed between interacting proteins is normalized by subtracting the background BRET ratio. This can be done in one of two ways (see Pfleger et al. (2006) Cell Signal 18:1664-1670; Pfleger et al. (2006) Nat Protoc 1:336-344): 1) the ratio of the 520-550 nm or 520-620 nm emission over the 460-490 nm or 410-490 nm emission for a cell sample containing only the donor construct is subtracted from the same ratio for a sample containing the interacting acceptor and donor fusion proteins; 2) the ratio of the 520-550 nm or 520-620 nm emission over the 460-490 nm or 410-490 nm emission for a cell sample treated with vehicle is subtracted from the same ratio for a second aliquot of the same cell sample treated with ligand. In the following examples, the second calculation will be used and the signal is described as ligand-induced BRET′. Furthermore, for data shown in FIGS. 4 to 20, all data points in a given set are corrected relative to the final data point prior to agonist treatment, which is fixed to zero. In keys on FIGS. 7 to 20, “>” means “followed by after 50 minutes”, with agonists added at time zero on the x-axes.
The Receptor-Heteromer Investigation Technology (Receptor-HIT) is an assay configuration that provides insights into receptor complexes (Ayoub et al. (2015) PLoS One 10(3):e0119803). It is also known as GPCR-HIT when assessing GPCRs. It is an assay configuration whereby one receptor (eg. CXCR2) is labelled with one component (eg. Renilla luciferase variant Rluc8) of a proximity-based reporter system (eg. BRET), the complementary component of which (eg. Venus yellow fluorescent protein) is fused to a receptor interacting partner (eg. mGsi).
(§3) Referring now to FIG. 3 (published in Tiulpakov et al (2016) Mol. Endocrinol. 30, 889-904), the proximity of Rluc8-tagged receptors to Venus-tagged Kras plasma membrane marker, or Venus-tagged Rabs specific for distinct subcellular locations, is monitored in live cells and in real-time using BRET. The Rab markers are: Venus/Rab5 (5) for early endosomes; Venus/Rab4 (4) for early endosome recycling; Venus/Rab11a (11) for recycling endosomes; Venus/Rab7 (7) for late endosomes/lysosomes; Venus/Rab9 (9) for late endosome trafficking to the trans-Golgi network; Venus/Rab1 (1) for endoplasmic reticulum trafficking to the cis-Golgi; Venus/Rab6 (6) for Golgi apparatus and trans-Golgi network; or Venus/Rab8 (8) for trans-Golgi network to plasma membrane.

[2] = target: T2, CXCR2 (Homo sapiens, UniProt P25025); assay: BRET trafficking of CXCR2/Rluc8 to Venus/Kras or Venus/Rab markers, absence of AT1R; assay type: cell-based; conditions: 100 nM CXCL8, 1 μM AngII
T2 sequence (P25025 1-360): T1 sequence (P25025 1-360)
Protocol: as §1, §2, §3

Angiotensin II [AngII]
proximity of AT1R/Rluc8 to Venus/Kras (BRET) [1]: marked reduction; also recorded: does not result in a notable increase | proximity of AT1R/Rluc8 to Venus/Rab1 (BRET) [1]: increase | proximity of AT1R/Rluc8 to Venus/Rab4 (BRET) [1]: increase | proximity of AT1R/Rluc8 to Venus/Rab5 (BRET) [1]: substantial increase | proximity of AT1R/Rluc8 to Venus/Rab7 (BRET) [1]: increase | proximity of AT1R/Rluc8 to Venus/Rab8 (BRET) [1]: less of an effect | proximity of AT1R/Rluc8 to Venus/Rab9 (BRET) [1]: increase | proximity of AT1R/Rluc8 to Venus/Rab11a (BRET) [1]: substantial increase | proximity of CXCR2/Rluc8 to Venus/Rab6 (BRET) ([2]; Golgi apparatus to trans-Golgi network, FIG. 4I): no effect | proximity of CXCR2/Rluc8 to Venus/Rab4 (BRET) ([2]; early endosome recycling, FIG. 4E): no effect | proximity of CXCR2/Rluc8 to Venus/Rab5 (BRET) ([2]; early endosomes, FIG. 4G): no effect | proximity of CXCR2/Rluc8 to Venus/Rab1 (BRET) ([2]; endoplasmic reticulum to cis-Golgi, FIG. 4C): no effect | proximity of CXCR2/Rluc8 to Venus/Rab9 (BRET) ([2]; late endosome to trans-Golgi network, FIG. 4O): no effect | proximity of CXCR2/Rluc8 to Venus/Rab7 (BRET) ([2]; late endosomes/lysosomes, FIG. 4K): no effect | proximity of CXCR2/Rluc8 to Venus/Kras (BRET) ([2]; plasma membrane marker, FIG. 4A): no effect | proximity of CXCR2/Rluc8 to Venus/Rab11a (BRET) ([2]; recycling endosomes, FIG. 4Q): no effect | proximity of CXCR2/Rluc8 to Venus/Rab8 (BRET) ([2]; trans-Golgi network to plasma membrane, FIG. 4M): no effect
